From US12655116B2, “Substituted isophthalic acid diamides” (Bayer Aktiengesellschaft, priority 2020, dated 2026)

How the values were obtained:
[1] = system: AVEFA; experiment: Pre-emergence herbicidal action against AVEFA; type: in vivo, Avena fatua; details: Avena fatua, 504 h, pre-emergence
Method in brief: (§1)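 Greenhouse pots of sandy loam held seeds covered with soil, onto which the compound was applied before emergence. An aqueous suspension or emulsion of WP or EC was used at 600 to 800 l/ha with 0.2% wetting agent. Percent damage was judged visually at 3 weeks.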

[2] = system: VERPE; experiment: Post-emergence herbicidal action against VERPE; type: in vivo, Veronica persica; details: Veronica persica, 504 h, 20 g/ha
Method in brief: (§2)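 A WP or EC formulation diluted in water with 0.2% wetting agent was sprayed at 600 to 800 l/ha onto one-leaf-stage plants grown in sandy loam. About 3 weeks later, action was rated visually in percent, 100% being dead plants.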

[3] = system: MATIN; experiment: Post-emergence herbicidal action against MATIN; type: in vivo, Matricaria inodora; details: Tripleurospermum inodorum, 504 h; for pest or weed control at 20 g/ha: dosage 20 g/ha
Method in brief: as §2

[4] = system: VERPE; experiment: Pre-emergence herbicidal action against VERPE; type: in vivo, Veronica persica; details: Veronica persica, 504 h, dosage 80 g/ha
Method in brief: as §1

[5] = system: ABUTH; experiment: Pre-emergence herbicidal action against ABUTH; type: in vivo, Abutilon theophrasti; details: Abutilon theophrasti, 504 h; for pest or weed control at 80 g/ha: scored visually after 3 weeks vs untreated controls (100% = plants have died, 0% = like control plants); for pest or weed control at 20 g/ha: dosage 20 g/ha, scored visually after 3 weeks vs untreated controls, 100% = plants have died, 0% = like control plants, read-out: Pre-emergence action against ABUTH (herbicidal activity in percent)
Method in brief: as §1

[6] = system: ALOMY; experiment: Post-emergence herbicidal action against ALOMY; type: in vivo, Alopecurus myosuroides; details: Alopecurus myosuroides, 504 h, dosage 20 g/ha, visual assessment about 3 weeks after treatment vs untreated controls
Method in brief: as §2

[7] = system: ALOMY; experiment: Pre-emergence herbicidal action against ALOMY; type: in vivo, Alopecurus myosuroides; details: Alopecurus myosuroides, 504 h, pre-emergence; for pest or weed control at 80 g/ha: scored visually after 3 weeks vs untreated controls (100% = plants have died, 0% = like control plants); for pest or weed control at 20 g/ha: scored visually after 3 weeks, 100% = plants have died, 0% = like control plants
Method in brief: as §1

[8] = system: LOLRI; experiment: Pre-emergence herbicidal action against LOLRI; type: in vivo, Lolium rigidum; details: Lolium rigidum, 504 h, 80 g/ha
Method in brief: as §1

[9] = system: ABUTH; experiment: Post-emergence herbicidal action against ABUTH; type: in vivo, Abutilon theophrasti; details: Abutilon theophrasti, 504 h, visual assessment about 3 weeks after treatment vs untreated controls; for pest or weed control at 20 g/ha: dosage 20 g/ha
Method in brief: as §2

[10] = system: DIGSA; experiment: Post-emergence herbicidal action against DIGSA; type: in vivo, Digitaria sanguinalis; details: Digitaria sanguinalis, 504 h, 20 g/ha
Method in brief: as §2

[11] = system: AMARE; experiment: Pre-emergence herbicidal action against AMARE; type: in vivo, Amaranthus retroflexus; details: Amaranthus retroflexus, 504 h, scored visually after 3 weeks vs untreated controls, 100% = plants have died, 0% = like control plants
Method in brief: as §1

[12] = system: ECHCG; experiment: Post-emergence herbicidal action against ECHCG; type: in vivo, Echinochloa crus-galli; details: Echinochloa crus-galli, 504 h; for pest or weed control at 20 g/ha: dosage 20 g/ha
Method in brief: as §2

[13] = system: SETVI; experiment: Pre-emergence herbicidal action against SETVI; type: in vivo, Setaria viridis; details: Setaria viridis, 504 h; for pest or weed control at 20 g/ha: dosage 20 g/ha; for pest or weed control at 80 g/ha: dosage 80 g/ha
Method in brief: as §1

[14] = system: DIGSA; experiment: Pre-emergence herbicidal action against DIGSA; type: in vivo, Digitaria sanguinalis; details: Digitaria sanguinalis, 504 h
Method in brief: as §1

[15] = system: MATIN; experiment: Pre-emergence herbicidal action against MATIN; type: in vivo, Matricaria inodora; details: Tripleurospermum inodorum, 504 h; for pest or weed control at 20 g/ha: dosage 20 g/ha; for pest or weed control at 80 g/ha: dosage 80 g/ha
Method in brief: as §1

[16] = system: POLCO; experiment: Pre-emergence herbicidal action against POLCO; type: in vivo, Polygonum convolvulus; details: Fallopia convolvulus, 504 h; for pest or weed control at 80 g/ha: dosage 80 g/ha
Method in brief: as §1

[17] = system: VIOTR; experiment: Pre-emergence herbicidal action against VIOTR; type: in vivo, Viola tricolor; details: Viola tricolor, 504 h; for pest or weed control at 20 g/ha: dosage 20 g/ha; for pest or weed control at 80 g/ha: dosage 80 g/ha
Method in brief: as §1

[18] = system: SETVI; experiment: Post-emergence herbicidal action against SETVI; type: in vivo, Setaria viridis; details: Setaria viridis, 504 h; for pest or weed control at 20 g/ha: dosage 20 g/ha
Method in brief: as §2

[19] = system: PHBPU; experiment: Pre-emergence herbicidal action against PHBPU; type: in vivo, Pharbitis purpurea; details: Ipomoea purpurea, 504 h; for pest or weed control at 80 g/ha: dosage 80 g/ha
Method in brief: as §1

[20] = system: PHBPU; experiment: Post-emergence herbicidal action against PHBPU; type: in vivo, Pharbitis purpurea; details: Ipomoea purpurea, 504 h, dosage 20 g/ha
Method in brief: as §2

[21] = system: ECHCG; experiment: Pre-emergence herbicidal action against ECHCG; type: in vivo, Echinochloa crus-galli; details: Echinochloa crus-galli, 504 h, 80 g/ha
Method in brief: as §1

[22] = system: AMARE; experiment: Post-emergence herbicidal action against AMARE; type: in vivo, Amaranthus retroflexus; details: Amaranthus retroflexus, 504 h, 20 g/ha, visual assessment about 3 weeks after treatment, 100% = plants have died, 0% = like control plants
Method in brief: as §2

[23] = system: VIOTR; experiment: Post-emergence herbicidal action against VIOTR; type: in vivo, Viola tricolor; details: Viola tricolor, 504 h, 20 g/ha
Method in brief: as §2

Row | Compound | pest or weed control at 80 g/ha [1] | pest or weed control at 20 g/ha [2] | pest or weed control at 20 g/ha [3] | pest or weed control at 80 g/ha [4] | pest or weed control at 80 g/ha [5] | pest or weed control at 20 g/ha [5] | pest or weed control at 20 g/ha [6] | pest or weed control at 80 g/ha [7] | pest or weed control at 20 g/ha [7] | pest or weed control at 80 g/ha [8] | pest or weed control at 20 g/ha [9] | pest or weed control at 20 g/ha [11] | pest or weed control at 80 g/ha [11] | pest or weed control at 20 g/ha [12] | pest or weed control at 20 g/ha [13] | pest or weed control at 80 g/ha [13] | pest or weed control at 20 g/ha [15] | pest or weed control at 80 g/ha [15] | pest or weed control at 80 g/ha [16] | pest or weed control at 20 g/ha [17] | also measured
1 | CCNC(=O)c1c(I)ccc(C(=O)Nc2nnnn2CC)c1Cl [Example 2-196] | 100% | 80% | 90% | 80% | 100% | 100% | 90% | 100% | 90% | 100% | 100% | 100% | 100% | 80% | 90% | 100% | 100% | 100% | 90% | 90% | pest or weed control at 20 g/ha ([1]; 20 g/ha, scored visually after 3 weeks, 100% = plants have died, 0% = like control plants): 80%; pest or weed control at 5 g/ha ([3]; dosage 5 g/ha): 80%; pest or weed control at 20 g/ha [10]: 90%; pest or weed control at 20 g/ha ([14]; dosage 20 g/ha): 90%; pest or weed control at 80 g/ha ([14]; dosage 80 g/ha): 100%; pest or weed control at 80 g/ha [17]: 100%; pest or weed control at 20 g/ha [18]: 100%; pest or weed control at 20 g/ha ([19]; dosage 20 g/ha): 80%; pest or weed control at 80 g/ha [19]: 90%
2 | CCNC(=O)c1c(C(F)(F)F)ccc(C(=O)Nc2nnnn2C)c1CC [Example 1-272] | 90% | 80% | 90% | 90% | 100% | 90% | 90% | 100% | 90% | 80% | 90% | 100% | 100% | 90% | 80% | 100% | 90% | 100% | 90% | 90% | pest or weed control at 20 g/ha [20]: 90%; pest or weed control at 80 g/ha [21]: 100%; pest or weed control at 20 g/ha [22]: 100%; pest or weed control at 5 g/ha ([9]; dosage 5 g/ha): 80%; pest or weed control at 5 g/ha ([12]; dosage 5 g/ha): 80%; pest or weed control at 20 g/ha [23]: 90%; pest or weed control at 20 g/ha ([16]; dosage 20 g/ha): 80%; pest or weed control at 80 g/ha [17]: 100%; pest or weed control at 5 g/ha ([18]; dosage 5 g/ha): 90%; pest or weed control at 20 g/ha [18]: 90%; pest or weed control at 80 g/ha [19]: 80%
